According to US12447153B2, “HER2 mutation inhibitors” (Array BioPharma Inc., priority 2021, dated 2025):

Assays:
[1] = biological target: ErbB2 with Exon 20 YVMA insertion (HER2-YVMA) (Homo sapiens (Human), UniProt P04626, INS775YVMA); test: Cellular Phosphorylation Assay, Assay 4 (constitutive ErbB2 phosphorylation, NIH 3T3 cells); format: cell-based
Experimental: (§1) NIH 3T3 cells were engineered to express ErbB2 with Exon 20 YVMA insertion (HER2-YVMA (SEQ ID NO: 2); Assay 4) or EGFR wild type (EGFR WT; Assay 5) with constructs obtained from GenScript and grown in DMEM supplemented with 10% fetal bovine serum and 15 μg/ml blasticidin. […] Serially diluted compounds were added to the plates for 1 hour at 37° C./5% CO2. EGFR WT cells were stimulated with 100 ng/ml rEGF for an additional 10 minutes at 37° C./5% CO2.
(§2) After compound incubation, medium was removed from the cells, which were then fixed in 3.7% formaldehyde in PBS at room temperature for 20 minutes. Following a wash with PBS, cells were permeabilized with 100% methanol at room temperature for 10 minutes. Cells were then washed with PBS/0.05% Tween-20 and blocked with Odyssey blocking buffer (LI-COR Biosciences) for at least 1 hour at room temperature. Antibodies to phosphorylated ErbB2 (Y1196, Cell Signaling #6942) or phosphorylated EGFR (Y1068, Cell Signaling #3777) and GAPDH (Millipore #MAB374) were added to the cells in blocking buffer containing 0.05% azide and incubated overnight at 4° C. After washing with PBS/0.05% Tween-20, the cells were incubated with fluorescently labeled secondary anti-rabbit antibody (LiCOR, IRDye 800CW #926-32211) and anti-mouse antibody (Molecular Probes, Alexa Fluor 680 #A21058) for 1 hour at room temperature in the dark. Cells were then washed and analyzed for fluorescence at both wavelengths using the Odyssey Infrared Imaging System (LI-COR Biosciences). Phosphorylated ErbB2 and EGFR signal was normalized to GAPDH signal to generate curves and calculate IC50 values.

[2] = biological target: EGFR (Homo sapiens (Human), UniProt P00533); test: ErbB Enzyme Assay (HTRF KinEASE-TK), Assay 3; format: biochemical
EGFR, sequence (P00533 25-1210): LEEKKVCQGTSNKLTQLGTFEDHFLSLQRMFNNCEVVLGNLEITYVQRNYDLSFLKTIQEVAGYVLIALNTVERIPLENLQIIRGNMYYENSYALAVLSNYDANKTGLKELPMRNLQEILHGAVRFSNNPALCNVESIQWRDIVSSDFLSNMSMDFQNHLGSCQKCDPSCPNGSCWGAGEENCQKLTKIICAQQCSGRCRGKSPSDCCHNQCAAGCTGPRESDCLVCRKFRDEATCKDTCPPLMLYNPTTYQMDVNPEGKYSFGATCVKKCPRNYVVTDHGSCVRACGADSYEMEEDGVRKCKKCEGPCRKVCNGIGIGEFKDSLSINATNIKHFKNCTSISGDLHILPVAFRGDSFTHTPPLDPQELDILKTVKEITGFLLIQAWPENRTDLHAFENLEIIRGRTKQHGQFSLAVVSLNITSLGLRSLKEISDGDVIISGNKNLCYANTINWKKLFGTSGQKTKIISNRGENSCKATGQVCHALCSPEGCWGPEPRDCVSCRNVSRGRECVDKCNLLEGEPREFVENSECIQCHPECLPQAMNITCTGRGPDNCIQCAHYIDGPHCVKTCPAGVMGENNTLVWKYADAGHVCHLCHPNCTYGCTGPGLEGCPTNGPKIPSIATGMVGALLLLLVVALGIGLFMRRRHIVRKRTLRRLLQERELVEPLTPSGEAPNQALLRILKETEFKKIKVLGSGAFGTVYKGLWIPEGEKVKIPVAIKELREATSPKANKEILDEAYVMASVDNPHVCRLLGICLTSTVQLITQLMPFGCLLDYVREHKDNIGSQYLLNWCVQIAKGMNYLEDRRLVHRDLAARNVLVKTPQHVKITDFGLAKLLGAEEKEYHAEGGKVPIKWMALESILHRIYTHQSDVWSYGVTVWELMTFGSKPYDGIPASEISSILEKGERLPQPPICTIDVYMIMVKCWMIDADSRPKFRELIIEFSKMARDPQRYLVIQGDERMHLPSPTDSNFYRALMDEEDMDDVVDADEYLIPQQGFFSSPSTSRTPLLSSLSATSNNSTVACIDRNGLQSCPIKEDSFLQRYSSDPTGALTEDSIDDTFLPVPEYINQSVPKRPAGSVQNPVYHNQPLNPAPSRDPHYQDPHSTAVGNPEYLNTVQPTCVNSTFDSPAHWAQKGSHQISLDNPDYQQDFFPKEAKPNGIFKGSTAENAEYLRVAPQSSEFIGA
Experimental: The kinases were incubated with 250 nM TK-substrate biotin (CisBio, part of cat #62TKOPEC) at 1 mM ATP along with test compounds in a buffer consisting of 25 mM HEPES, pH 7.4, 10 mM MgCl2, 0.01% Triton X-100, and 2% DMSO in a volume of 8 μL. […] After 30-minute incubation at 22° C., the reaction was quenched by adding 8 μL of quench solution containing 62.5 nM Sa-XL665 and 0.25×TK-Ab-Cryptate in HTRF detection buffer (all from CisBio, part of cat #62TKOPEC). […] A 4-parameter logistic curve was fit to the POC values as a function of the concentration of compound, and the IC50 value was the point where the best-fit curve crossed 50 POC.

[3] = biological target: ErbB2 WT (Homo sapiens (Human), UniProt P04626); test: ErbB Enzyme Assay (HTRF KinEASE-TK), Assay 2; format: biochemical
ErbB2 WT, sequence (P04626 23-1255): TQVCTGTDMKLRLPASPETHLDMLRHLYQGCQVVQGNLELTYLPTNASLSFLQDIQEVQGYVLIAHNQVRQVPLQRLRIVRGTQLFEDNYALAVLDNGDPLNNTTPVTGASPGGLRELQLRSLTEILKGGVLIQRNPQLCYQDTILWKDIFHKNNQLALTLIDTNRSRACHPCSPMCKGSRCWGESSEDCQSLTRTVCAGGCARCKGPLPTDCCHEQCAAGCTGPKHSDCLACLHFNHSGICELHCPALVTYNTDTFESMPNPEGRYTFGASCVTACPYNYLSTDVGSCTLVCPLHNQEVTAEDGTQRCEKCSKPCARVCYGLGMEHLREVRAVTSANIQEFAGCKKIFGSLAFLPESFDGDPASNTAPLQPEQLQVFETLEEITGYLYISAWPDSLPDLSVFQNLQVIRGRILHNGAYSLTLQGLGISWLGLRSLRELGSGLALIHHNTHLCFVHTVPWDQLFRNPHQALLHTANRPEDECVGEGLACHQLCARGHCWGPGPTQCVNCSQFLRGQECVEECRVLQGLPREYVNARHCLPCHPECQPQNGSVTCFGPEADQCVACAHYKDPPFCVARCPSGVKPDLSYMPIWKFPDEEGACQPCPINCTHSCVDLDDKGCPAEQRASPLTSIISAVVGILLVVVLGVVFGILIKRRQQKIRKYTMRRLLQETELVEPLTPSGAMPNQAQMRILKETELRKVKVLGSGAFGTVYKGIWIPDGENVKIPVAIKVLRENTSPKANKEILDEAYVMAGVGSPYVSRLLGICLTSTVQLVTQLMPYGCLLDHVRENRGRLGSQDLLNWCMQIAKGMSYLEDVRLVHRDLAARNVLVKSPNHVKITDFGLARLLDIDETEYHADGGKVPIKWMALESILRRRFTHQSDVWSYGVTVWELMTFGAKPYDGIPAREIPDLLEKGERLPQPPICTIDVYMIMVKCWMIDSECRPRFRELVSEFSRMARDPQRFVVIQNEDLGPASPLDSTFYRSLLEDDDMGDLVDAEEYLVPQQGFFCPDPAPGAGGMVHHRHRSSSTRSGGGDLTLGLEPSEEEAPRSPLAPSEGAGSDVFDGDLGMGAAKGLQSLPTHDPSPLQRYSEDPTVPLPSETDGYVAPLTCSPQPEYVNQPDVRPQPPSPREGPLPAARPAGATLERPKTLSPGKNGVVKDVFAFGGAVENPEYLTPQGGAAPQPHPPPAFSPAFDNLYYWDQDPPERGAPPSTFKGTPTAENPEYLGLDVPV
Experimental: The kinases were incubated with 250 nM TK-substrate biotin (CisBio, part of cat #62TKOPEC) at 1 mM ATP along with test compounds in a buffer consisting of 25 mM HEPES, pH 7.4, 10 mM MgCl2, 0.01% Triton X-100, and 2% DMSO in a volume of 8 μL. […] After 30-minute incubation at 22° C., the reaction was quenched by adding 8 μL of quench solution containing 62.5 nM Sa-XL665 and 0.25×TK-Ab-Cryptate in HTRF detection buffer (all from CisBio, part of cat #62TKOPEC).

[4] = biological target: EGFR wild type (EGFR WT) (Homo sapiens (Human), UniProt P00533); test: Cellular Phosphorylation Assay, Assay 5 (EGF-stimulated EGFR phosphorylation, NIH 3T3 cells); format: cell-based
EGFR wild type (EGFR WT), sequence (P00533 25-1210): as the sequence (P00533 25-1210) above
Experimental: as §1, §2

[5] = cellular ErbB2 YVMA phosphorylation
[6] = cellular EGFR WT phosphorylation, EGF-stimulated
[7] = EGF-stimulated EGFR WT phosphorylation

ErbB2 with Exon 20 YVMA insertion (HER2-YVMA), sequence (P04626 other isoform, or with tags, fused parts or gaps ins YVMA behind 775): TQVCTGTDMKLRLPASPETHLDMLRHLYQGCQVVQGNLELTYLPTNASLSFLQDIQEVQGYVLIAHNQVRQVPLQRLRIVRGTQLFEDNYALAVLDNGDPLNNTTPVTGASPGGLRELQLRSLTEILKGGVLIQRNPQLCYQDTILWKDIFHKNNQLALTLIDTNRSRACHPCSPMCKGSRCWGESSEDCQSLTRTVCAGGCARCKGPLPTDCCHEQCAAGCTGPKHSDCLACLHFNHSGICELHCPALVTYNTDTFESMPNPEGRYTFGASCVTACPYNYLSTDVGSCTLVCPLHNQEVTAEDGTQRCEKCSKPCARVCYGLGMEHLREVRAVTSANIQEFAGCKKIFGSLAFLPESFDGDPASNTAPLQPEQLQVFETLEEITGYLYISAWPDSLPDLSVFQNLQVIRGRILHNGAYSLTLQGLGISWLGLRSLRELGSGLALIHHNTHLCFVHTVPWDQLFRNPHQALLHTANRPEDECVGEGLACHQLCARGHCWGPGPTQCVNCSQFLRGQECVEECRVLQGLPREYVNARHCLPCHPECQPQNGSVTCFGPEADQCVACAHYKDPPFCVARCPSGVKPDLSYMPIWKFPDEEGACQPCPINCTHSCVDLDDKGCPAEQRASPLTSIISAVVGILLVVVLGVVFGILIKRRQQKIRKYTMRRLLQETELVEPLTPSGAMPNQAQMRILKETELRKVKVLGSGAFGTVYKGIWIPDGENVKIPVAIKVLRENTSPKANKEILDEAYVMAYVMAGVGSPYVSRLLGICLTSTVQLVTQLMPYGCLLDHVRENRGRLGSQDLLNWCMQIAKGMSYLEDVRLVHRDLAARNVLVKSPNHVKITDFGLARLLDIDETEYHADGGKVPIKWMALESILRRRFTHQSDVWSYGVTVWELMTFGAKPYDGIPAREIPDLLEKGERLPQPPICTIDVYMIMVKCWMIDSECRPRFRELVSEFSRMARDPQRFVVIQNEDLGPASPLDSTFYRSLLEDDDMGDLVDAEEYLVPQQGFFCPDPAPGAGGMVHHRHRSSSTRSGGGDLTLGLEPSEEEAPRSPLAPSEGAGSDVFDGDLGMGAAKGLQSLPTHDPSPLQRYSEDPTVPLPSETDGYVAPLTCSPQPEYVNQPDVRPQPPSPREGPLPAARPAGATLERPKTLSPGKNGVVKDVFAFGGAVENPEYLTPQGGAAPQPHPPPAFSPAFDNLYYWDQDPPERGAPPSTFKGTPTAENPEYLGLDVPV

| Compound | IC50 [1, 5] | IC50 ([2]; EGFR enzyme assay) | IC50 ([3]; ErbB2 WT enzyme assay) | IC50 [4, 6] | IC50 ([1]; ErbB2 YVMA phosphorylation) | IC50 ([2]; EGFR enzyme) | IC50 ([3]; ErbB2 WT enzyme) | IC50 [4, 7] |
| --- | --- | --- | --- | --- | --- | --- | --- | --- |
| C=CC(=O)N1C[C@@H](c2ccc3ncnc(Nc4cc(C)c(Oc5ccn6ncnc6c5)cc4F)c3n2)C[C@@H]1C (mixture of isomers) [Example 384] | 58.3 nM | 3000 nM | 101 nM | ≥ 5000 nM |  |  |  |  |
| C=CC(=O)N1C[C@H](c2ccc3ncnc(Nc4cc(C)c(Oc5ccn6ncnc6c5)cc4F)c3n2)C[C@H]1C (mixture of isomers) [Example 386] | 235 nM | ≥ 10000 nM | 220 nM | ≥ 5000 nM |  |  |  |  |
| C=CC(=O)N1C[C@H](c2ccc3ncnc(Nc4ccc(Oc5ccn6ncnc6c5)c(C)c4F)c3n2)C[C@H]1C (mixture of isomers) [Example 387] | 60.8 nM | 2200 nM | 52.1 nM | 4280 nM |  |  |  |  |
| C=CC(=O)N1[C@@H]2CC[C@H]1CC(c1ccc3ncnc(Nc4cc(C)c(Oc5ccc6c(c5)ncn6C)cc4F)c3n1)C2 (mixture of isomers) [Example 130, rac-1-((1R,5S)-3-(4-((2-fluoro-5-methyl-4-((1-methyl-1H-benzo[d]imidazol-5-yl)oxy)phenyl)amino)pyrido[3,2-d]pyrimidin-6-yl)-8-azabicyclo[3.2.1]octan-8-yl)prop-2-en-1-one] |  |  |  |  | 19.9 nM | 7340 nM | 135 nM | ≥ 5000 nM |
| C=CC(=O)N1CC[C@H]2C[C@@H](c3ccc4ncnc(Nc5ccc(Oc6ccc7c(c6)ncn7C)c(C)c5F)c4n3)C[C@H]21 (racemic) [Example 133, rac-1-((3aR,5R,6aR)-5-(4-((2-fluoro-3-methyl-4-((1-methyl-1H-benzo[d]imidazol-5-yl)oxy)phenyl)amino)pyrido[3,2-d]pyrimidin-6-yl)hexahydrocyclopenta[b]pyrrol-1(2H)-yl)prop-2-en-1-one] |  |  |  |  | 34 nM | 3170 nM | 41.5 nM | 3780 nM |
| C=CC(=O)N1CCC(Oc2ccc3ncnc(Nc4ccc(Oc5ccc6sc(C)nc6c5)c(C)c4)c3n2)CC1 [Example 7, 1-(4-((4-((3-methyl-4-((2-methylbenzo[d]thiazol-5-yl)oxy)phenyl)amino)pyrido[3,2-d]pyrimidin-6-yl)oxy)piperidin-1-yl)prop-2-en-1-one] |  |  |  |  |  | ≥ 10000 nM | 2090 nM |  |
| C=CC(=O)N1CCC(Oc2ccc3ncnc(Nc4ccc(Oc5ccc6sc(C)nc6c5)c(C)c4F)c3n2)CC1 [Example 10, 1-(4-((4-((2-fluoro-3-methyl-4-((2-methylbenzo[d]thiazol-5-yl)oxy)phenyl)amino)pyrido[3,2-d]pyrimidin-6-yl)oxy)piperidin-1-yl)prop-2-en-1-one] |  |  |  |  |  | ≥ 10000 nM | 2400 nM |  |
| C=CC(=O)N1CCC(Oc2ccc3ncnc(Nc4ccc(Oc5ccc6sc(C)nc6c5)c(Cl)c4F)c3n2)CC1 [Example 16, 1-(4-((4-((3-chloro-2-fluoro-4-((2-methylbenzo[d]thiazol-5-yl)oxy)phenyl)amino)pyrido[3,2-d]pyrimidin-6-yl)oxy)piperidin-1-yl)prop-2-en-1-one] |  |  |  |  |  | ≥ 10000 nM | 10000 nM |  |
| C=CC(=O)Nc1ccc2ncnc(Nc3ccc(Oc4ccc5c(c4)ncn5C)c(C)c3)c2n1 [Example 18, N-(4-((3-methyl-4-((1-methyl-1H-benzo[d]imidazol-5-yl)oxy)phenyl)amino)pyrido[3,2-d]pyrimidin-6-yl)acrylamide] |  |  |  |  | 443 nM | 369 nM | 42.3 nM |  |
| CC#CC(=O)Nc1ccc2ncnc(Nc3ccc(Oc4ccc5c(c4)ncn5C)c(C)c3)c2n1 [Example 19, N-(4-((3-methyl-4-((1-methyl-1H-benzo[d]imidazol-5-yl)oxy)phenyl)amino)pyrido[3,2-d]pyrimidin-6-yl)but-2-ynamide] |  |  |  |  | 87.8 nM | 205 nM | 17.8 nM |  |
| C=CS(=O)(=O)Nc1ccc2ncnc(Nc3ccc(Oc4ccc5c(c4)ncn5C)c(C)c3)c2n1 [Example 20, N-(4-((3-methyl-4-((1-methyl-1H-benzo[d]imidazol-5-yl)oxy)phenyl)amino)pyrido[3,2-d]pyrimidin-6-yl)ethenesulfonamide] |  |  |  |  | 1740 nM | 340 nM | 47.9 nM |  |
| C=CS(=O)(=O)N(C)c1ccc2ncnc(Nc3ccc(Oc4ccc5c(c4)ncn5C)c(C)c3)c2n1 [Example 21, N-methyl-N-(4-((3-methyl-4-((1-methyl-1H-benzo[d]imidazol-5-yl)oxy)phenyl)amino)pyrido[3,2-d]pyrimidin-6-yl)ethenesulfonamide] |  |  |  |  | 250 nM | 466 nM | 83.2 nM |  |
| CNC(=O)/C=C/c1ccc2ncnc(Nc3ccc(Oc4ccc5c(c4)ncn5C)c(C)c3)c2n1 [Example 22, (E)-N-methyl-3-(4-((3-methyl-4-((1-methyl-1H-benzo[d]imidazol-5-yl)oxy)phenyl)amino)pyrido[3,2-d]pyrimidin-6-yl)acrylamide] |  |  |  |  | 80.6 nM | ≥ 10000 nM | 167 nM |  |
| C=CC(=O)N(C)c1ccc2ncnc(Nc3ccc(Oc4ccc5c(c4)ncn5C)c(C)c3)c2n1 [Example 23, N-methyl-N-(4-((3-methyl-4-((1-methyl-1H-benzo[d]imidazol-5-yl)oxy)phenyl)amino)pyrido[3,2-d]pyrimidin-6-yl)acrylamide] |  |  |  |  | 63.9 nM | 709 nM | 72.7 nM |  |
| C=CC(=O)N1C2COCC1CC(c1ccc3ncnc(Nc4ccc(Oc5ccc6c(c5)ncn6C)c(C)c4F)c3n1)C2 (stereo not drawn) [Example 161, 1-(7-(4-((2-fluoro-3-methyl-4-((1-methyl-1H-benzo[d]imidazol-5-yl)oxy)phenyl)amino)pyrido[3,2-d]pyrimidin-6-yl)-3-oxa-9-azabicyclo[3.3.1]nonan-9-yl)prop-2-en-1-one] |  |  |  |  |  | 570 nM | 19.9 nM | 368 nM |
| Cc1c(Oc2ccn3ncnc3c2)ccc(Nc2ncnc3ccc(N4CCN(C(=O)C56CC5C6)C(C)(C)C4)nc23)c1F (stereo not drawn) [Example 186, (4-(4-((4-([1,2,4]triazolo[1,5-a]pyridin-7-yloxy)-2-fluoro-3-methylphenyl)amino)pyrido[3,2-d]pyrimidin-6-yl)-2,2-dimethylpiperazin-1-yl)(bicyclo[1.1.0]butan-1-yl)methanone] |  |  |  |  | 408 nM |  | 69.1 nM | ≥ 5000 nM |
| C=CC(=O)N1CCC12CN(c1ccc3ncnc(Nc4ccc(Oc5ccn6ncnc6c5)c(C)c4F)c3n1)C2 [Example 275] |  | 895 nM |  | 526 nM |  |  |  |  |
| CC#CC(=O)N1C[C@@H]2CC[C@H]1CN2c1ccc2ncnc(Nc3ccc(Oc4ccn5ncnc5c4)c(C)c3F)c2n1 [Example 329] | 73.7 nM |  | 103 nM | 1420 nM |  |  |  |  |
| C=CC(=O)N1CC2(C1)CN(c1ccc3ncnc(Nc4cc(Cl)c(Oc5ccn6ncnc6c5)cc4F)c3n1)C2 [Example 342] |  | ≥ 10000 nM |  | ≥ 5000 nM |  |  |  |  |
| C=CC(=O)N1C[C@H]2CC[C@@H]1[C@H](c1ccc3ncnc(Nc4cc(C)c(Oc5ccn6ncnc6c5)cc4F)c3n1)C2 [Example 395] |  | ≥ 10000 nM |  | ≥ 5000 nM |  |  |  |  |
| C=CC(=O)N1C[C@H]2CC[C@@H]1[C@@H](c1ccc3ncnc(Nc4cc(C)c(Oc5ccn6ncnc6c5)cc4F)c3n1)C2 [Example 396] |  | 4060 nM |  | ≥ 5000 nM |  |  |  |  |
| C=CC(=O)N1C[C@H]2CC[C@@H]1C[C@H]2c1ccc2ncnc(Nc3cc(C)c(Oc4ccn5ncnc5c4)cc3F)c2n1 [Example 402] |  | 4940 nM |  | ≥ 5000 nM |  |  |  |  |
